Source: patent publication US8138218B2, “Growth hormone secretagogues” (Ipsen Pharma S.A.S., priority 2005, dated 2012)

Target: T1, human growth hormone secretagogue receptor-1a (hGHS-R1a) (Homo sapiens, UniProt Q92847)
T1 construct: The full length hGHS-R1a was subcloned into the mammalian expression vector pcDNA 3.1; expressed in transfected cells
Test: hGHS-R1a binding assay, (125I)ghrelin displacement on CHO-K1 cell membranes
Conditions: membranes of CHO-K1 cells expressing hGHS-R1a; 0.05 nM (125I)ghrelin; sixty minute incubation at 4° C.
Source text: A. Preparation of CHO-K1 cells expressing the human recombinant GHS receptor-1a
The cDNA for human growth hormone secretagogue receptor-1a (hGHS-R1a) was cloned by Polymerase Chain Reaction (PCR) using human brain RNA as a template (Clontech®, Palo Alto, Calif.), gene specific primers flanking the full-length coding sequence of hGHS-R1a, (S: 5′-[…]-3′ and AS: 5′-[…]-3′), and an Advantage 2 PCR Kit® (Clontech®). The PCR product was cloned into the pCR2.1 vector using an Original TA Cloning Kit® (Invitrogen®, Carlsbad, Calif.). The full length hGHS-R1a was subcloned into the mammalian expression vector pcDNA 3.1 (Invitrogen®, Carlsbad, Calif.). The plasmid was transfected into the Chinese hamster ovary cell line, CHO-K1 (American Type Culture Collection®, Rockville, Md.), by calcium phosphate method (Wigler, M et al., Cell, (1977), 11:223). Single cell clones stably expressing the hGHS-R1a were obtained by selecting transfected cells grown in cloning rings in RPMI 1640 media supplemented with 10% fetal bovine serum and 1 mM sodium pyruvate containing 0.8 mg/ml G418 (Gibco®, Grand Island, N.Y.).
B. hGHS-R1a Binding Assay:
Membranes for radioligand binding studies can be and were prepared by homogenization of the foregoing CHO-K1 cells expressing the hGHS-R1a in 20 ml of ice-cold 50 mM Tris-HCl with a Brinkman Polytron® (Westbury, N.Y.) (setting 6, 15 sec). The homogenates were washed twice by centrifugation (39,000 g/10 min) and the final pellets were re-suspended in 50 mM Tris-HCl containing 2.5 mM MgCl2 and 0.1% BSA. For the assay, aliquots (0.4 ml) were incubated with 0.05 nM (^125I)ghrelin (˜2000 Ci/mmol)(Perkin Elmer Life Sciences®, Boston, Mass.) with and without 0.05 ml of unlabeled competing test compounds of the invention. After a sixty minute incubation at 4° C., the bound (^125I)ghrelin was separated from the free by rapid filtration through GF/C filters (Brandel®, Gaithersburg, Md.) which were previously soaked in 0.5% polyethyleneimine/0.1% BSA. The filters were then washed three times with 5-ml aliquots of ice-cold 50 mM Tris-HCl and 0.1% bovine serum albumin and the bound radioactivity trapped on the filters was counted by gamma spectrometry (Wallac LKB®, Gaithersburg, Md.). Specific binding was defined as the total (^125I)ghrelin bound minus that bound in the presence of 1000 nM ghrelin

T1 sequence (Q92847 whole entry): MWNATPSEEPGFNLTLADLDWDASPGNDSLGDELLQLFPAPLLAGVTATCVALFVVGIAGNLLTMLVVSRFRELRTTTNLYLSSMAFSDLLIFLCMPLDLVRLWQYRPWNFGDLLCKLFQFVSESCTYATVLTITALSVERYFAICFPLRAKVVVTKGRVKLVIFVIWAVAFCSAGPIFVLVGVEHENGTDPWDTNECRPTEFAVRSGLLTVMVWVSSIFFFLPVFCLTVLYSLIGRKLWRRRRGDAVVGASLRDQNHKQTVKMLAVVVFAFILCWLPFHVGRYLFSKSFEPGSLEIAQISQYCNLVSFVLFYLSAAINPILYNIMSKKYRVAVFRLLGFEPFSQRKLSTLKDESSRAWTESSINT

Row | SMILES | Ki
1 | CC(C)(N)C(=O)N[C@H](Cc1c[nH]c2ccccc12)C(=O)N[C@H](Cc1csc2ccccc12)NC=O [#5] | 0.279 µM
2 | CC(C)(N)C(=O)N[C@H](Cc1csc2ccccc12)C(=O)N[C@H](Cc1c[nH]c2ccccc12)NC=O [#1, Aib-D-Bal-DgTrp-CHO] | 0.015 µM
3 | CC(C)(N)C(=O)N[C@H](Cc1csc2ccccc12)C(=O)N[C@H](Cc1cccc2ccccc12)NC=O [#2] | 0.236 µM
4 | O=CN[C@@H](Cc1c[nH]c2ccccc12)NC(=O)[C@@H](Cc1csc2ccccc12)NC(=O)C1CCNCC1 [#18] | 0.12 µM
5 | CC(=O)N[C@@H](Cc1c[nH]c2ccccc12)NC(=O)[C@@H](Cc1csc2ccccc12)NC(=O)C(C)(C)N [#11, Aib-D-Bal-DgTrp-C(O)CH3] | 0.0382 µM
6 | CC(C)(N)C(=O)N[C@H](Cc1csc2ccccc12)C(=O)N[C@@H](Cc1c[nH]c2ccccc12)OC(=O)C(F)(F)F [#73] | 0.093 µM
7 | CCC(=O)N[C@@H](Cc1c[nH]c2ccccc12)NC(=O)[C@@H](Cc1csc2ccccc12)NC(=O)C(C)(C)N [#50] | 0.0615 µM
8 | CC(=O)N[C@H](Cc1c[nH]c2ccccc12)NC(=O)[C@@H](Cc1csc2ccccc12)NC(=O)C(C)(C)N [#12] | 0.00256 µM
9 | CC(C)(N)C(=O)N[C@H](Cc1cccc2ccccc12)C(=O)N[C@H](Cc1csc2ccccc12)NC=O [#6] | 0.1 µM
10 | O=CN[C@@H](Cc1ccc2ccccc2c1)NC(=O)[C@@H](Cc1csc2ccccc12)NC(=O)C1CCNCC1 [#20] | 0.133 µM
11 | CC(C)(N)C(=O)N[C@H](Cc1ccc2ccccc2c1)C(=O)N[C@H](Cc1csc2ccccc12)NC=O [#7] | 0.226 µM
12 | CC(C)(N)C(=O)N[C@H](Cc1csc2ccccc12)C(=O)N[C@H](Cc1csc2ccccc12)NC=O [#4] | 0.0921 µM
13 | CC(C)(N)C(=O)N[C@H](Cc1cccc2ccccc12)C(=O)N[C@H](Cc1c[nH]c2ccccc12)NC=O [#65] | 0.0168 µM
14 | CC(C)(C)C(=O)N[C@@H](Cc1c[nH]c2ccccc12)NC(=O)[C@@H](Cc1csc2ccccc12)NC(=O)C(C)(C)N [#52] | 0.0651 µM
15 | CC(C)C(=O)N[C@@H](Cc1c[nH]c2ccccc12)NC(=O)[C@@H](Cc1csc2ccccc12)NC(=O)C(C)(C)N [#51] | 0.0202 µM
